According to patent US20180055838A1, “METHODS AND COMPOSITIONS FOR TREATMENT OF DERMAL AND EPIDERMAL WOUNDS” (THE PENN STATE RESEARCH FOUNDATION, priority 2011, published 2018):

Tests used:
[1] = tested on: full-thickness cutaneous wound; assay: Healing of 5-mm full-thickness cutaneous wound in Type 2 diabetic (db/db) mice; assay type: in vivo; conditions: 10^−5 M NTX in moisturizing cream 3 times daily, by days 6, 13, and 15, p<0.05
Text: To study the effects of opioid receptor antagonists on wound healing in a Type 2 diabetic and general obesity model, wound healing was compared between wild type and Lepr^db (also referred to as db/db) mutant mice. Mice homozygous for the diabetes spontaneous mutation (Lepr^db) become identifiably obese around 3 to 4 weeks of age. Plasma insulin levels become elevated beginning at 10 to 14 days and blood sugar levels become elevated beginning at four to eight weeks. These mice show delayed wound healing compared to wild type mice.
Mice were purchased from Jackson Laboratories and housed under standard laboratory care. Body weights and blood glucose levels of 8-week old Type 2 diabetic (db/db) mice and wild type C57Bl/6 mice were obtained (FIG. 9). Tail vein blood was obtained and glucose levels were measured by a TrueTrak glucometer. Values represent means±SEM; n=6-10 mice/treatment group.
To study wound healing, a 5-mm circular full-thickness cutaneous wound was created on the dorsum of db/db and wild type mice. Db/db mice were treated with either 10^−5 M Naltrexone (NTX) in moisturizing cream (vehicle), or vehicle alone; wild type mice received vehicle only. Applications were made 3 times daily for 15 days.

[2] = tested on: basal cells of the cutaneous epithelium; assay: DNA synthesis (BrdU labeling index) in stratum basale of unwounded dorsal skin; assay type: in vivo; conditions: for increase of BrdU incorporation relative to labeling index of DB animals: DB (T1D) rats
Description: Male Sprague-Dawley rats (˜150 g) were purchased from Charles River Laboratories (Wilmington, Mass.), and housed under standard laboratory conditions; water and food were available ad libitum. All investigations conformed to the guidelines of The Pennsylvania State University College of Medicine Institutional Animal Care and Use Committee.
Type 1 diabetes (T1D) was induced by intraperitoneal (i.p.) injections of 40 mg/kg streptozotocin (STZ, Sigma, St. Louis, Mo.), on two consecutive days (Klocek et al., Journal of Ocular Pharmacology and Therapeutics, 23:89-102 (2007); Havel et al., Diabetes, 49:244-252 (2000)). This regimen produced insulin-dependent diabetes in 100% of the animals within 72-96 h; rats with blood glucose levels measuring >350 mg/dl were considered diabetic (DB). Blood glucose levels were monitored from the tail vein using a True Track® Smart System glucometer (Home Diagnostics, Ft. Lauderdale, Fla.) before receiving STZ, and at 1, 4, and 8 weeks following induction of hyperglycemia. Control animals receiving an injection of an equivalent volume of sterile saline were termed “normal”. All rats were weighed weekly.
Normal (n=24) and diabetic (DB) rats (n=24) were randomized 8 weeks after injections of STZ or saline, and received NTX (Sigma-Aldrich, Indianapolis, Ind.) systemically (30 mg/kg, i.p. or subcutaneous (s.c.) at 0800 h) or topically 3 times daily at 0700, 1200, and 1700 h. For topical applications, NTX was dissolved in Sorenson's phosphate buffer (SPB), KY jelly (KYJ) (K-Y, Personal Products Company, McNeil-PPC, Inc., Skillman, N.J.), Neutrogena moisturizing cream (MCN) (Neutrogena Corporation, Los Angeles, Calif.), or DMSO (VWR, Philadelphia, Pa.). NTX was dissolved in sterile water at dosages of 10^−4 M, 10^−5 M or 10^−6 M, and thoroughly mixed into each of the carriers (1:1, v/v); 0.5 ml of saline mixed into corresponding carriers served as the respective vehicle control.
On the day preceding NTX or vehicle treatment, an 8×8 cm area was shaved on the dorsal surface of each rat and 4 circles (approximately 20 mm in diameter) were made with a permanent marker to denote locations of subsequent topical applications and/or skin collection. Using an applicator stick, one ml of carrier containing NTX or vehicle was placed within the demarked areas. Applications of NTX formulations were randomized to different positions. Each animal received NTX in 3 different concentrations, as well as the vehicle, in the same carrier; some rats received only saline in a carrier or were untreated.
To assess cells undergoing DNA synthesis, rats were injected i.p. with 100 mg/kg BrdU (Sigma-Aldrich) 3 and 6 h before euthanasia with Euthasol (Virbac, Fort Worth, Tex.). Appropriate regions of the skin were removed, fixed in 10% buffered formalin, and paraffin sections (6 μm) were stained with anti-BrdU-POD (Invitrogen, Carlsbad, Calif.). BrdU stained cells in the basal layer of the epithelium were counted in four 0.1 mm grids at 250× magnification using 2 sections/specimen; 3 tissue specimens were analyzed for each dosage of NTX in each carrier.

human and animal cells = human and animal cells (Cheng 2009); cited from earlier work
[3] = tested on: epithelium covering the granulation tissue; assay: Histopathology and epithelial thickness of wounded region 20 days after wounding; assay type: in vivo, rat
Description: On day 20 following creation of the wound, some rats were euthanized and the original wound areas as well as tissue peripheral to the wound that encompassed the 20 mm diameter circle were excised and fixed in 10% neutral buffered formalin. Tissues were processed for paraffin embedding; sections were stained with hematoxylin and eosin. The thickness of the epithelium covering the granulation tissue was measured with an ocular micrometer. Five measures/section from 7-8 wounds/treatment group were evaluated at 250× magnification.

[4] = literature reports (Stinchcomb 2002; Krishman 2010); cited from earlier work
[5] = tested on: full-thickness cutaneous wounds; assay: Closure of 6 mm full-thickness cutaneous wounds (residual wound area, contraction, re-epithelialization); assay type: in vivo, rat; conditions: Normal rats, 10^−5 M NTX in MCN; for reduction of wound area relative to MCN+vehicle: within 3 days
Description: In a second set of experiments, Normal (n=70) and DB (n=70) Sprague-Dawley rats, 12-14 weeks of age and 8 weeks after injection of STZ, were subjected to wounding. Eight rats/treatment regimen were evaluated over the course of 3 independent experiments. The dorsum of the rat was shaved, and areas (20 mm in diameter) outlined with a marker in order to consistently position the wounds. Animals were anesthetized by i.p. injection of ketamine (60 mg/kg), xylazine (10 mg/kg), and acepromazine (1 mg/kg), and a 6 mm full-thickness circular excisional skin wound was made in the center of the demarked area to the level of the panniculus muscle using an Acupunch (Acuderm Inc., Fort Lauderdale, Fla.). Three wounds per rat were standardized such that the first wound was made 5 cm posterior to the occipital notch at the posterior of the animal's cranium and 1 cm off the midline. The second wound was created 7 cm posterior to the occipital notch at the posterior of the animal's cranium and 1 cm off the midline on the opposite side from the first wound. The third wound was placed 9 cm posterior to the occipital notch at the base of the animal's cranium and 1 cm off the midline on the same side as the first wound. To minimize the effects of diurnal rhythm, surgery was performed between 0800-0900 h. All wounds were left uncovered.
Topical administration of ˜0.1 ml of the carrier containing NTX or vehicle, using the dosage and carriers selected from the first experiment, was initiated immediately after wounding (0800 h for those rats receiving agents only once per day, and at 0800, 1200, and 1600 h for those animals receiving 3 applications daily); control rats received the carrier with vehicle either once or three times daily. Some animals in the Normal and DB groups were wounded but untreated.
Wound size was monitored by capturing images with a digital camera mounted on a tripod set 20 cm from the surface; a ruler was photographed with each wound. Animals were manually restrained without anesthesia for photography. Photographs were taken immediately after surgery and on days 3, 5, 7, 9, and 11. The area of each wound was analyzed using Image ProPlus 6.2 (Media Cybernetics, Inc., Bethesda, Md.). The percent residual wound was calculated at each time point for every rat. At 8 days, wound closure also was quantified according to Pietramaggiori and colleagues (Pietramaggiori et al., J Surg Res 160:169-177 (2010)) by measuring contraction, re-epithelialization, and open wound as a percentage of the original wound area. The sum of contracted, re-epithelialized, and open wound area was defined as equaling 100% of the original wound size (Yannas I., Tissue and Organ Regeneration in Adults. New York: Springer, 2001).

## O=C1CC[C@@]2(O)[C@H]3Cc4ccc(O)c5c4[C@@]2(CCN3CC2CC2)[C@H]1O5 [NTX, 17-(cyclopropylmethyl)-4,5α-epoxy-3,14-dihydroxymorphinan-6-one]
[1]
  wound healing (percent residual defect) relative to db/db mice treated with vehicle only: significant improvement in would healing
[2]; systemic 30 mg/kg NTX i.p.
  increase of BrdU incorporation relative to labeling index of DB animals: 181%
[2]; systemic 30 mg/kg NTX s.c.
  increase of BrdU incorporation relative to labeling index of DB animals: 59%
[2]; DB rats, topical NTX 10^−4 and 10^−5 M in SPB
  effect on BrdU incorporation: no effect
[2]; DB rats, topical NTX at all 3 dosages in KYJ
  elevation of labeling index from baseline levels: 103-147%
[2]; DB rats, topical NTX at all 3 dosages in MCN
  elevation of labeling index from baseline levels: 85-89%
[2]; DB rats, topical NTX combined with DMSO, only at 10^−4 and 10^−5 M
  efficacy on BrdU labeling: efficacious
[2]; Normal rats, systemic 30 mg/kg NTX i.p.
  elevation of BrdU labeling relative to labeling index of Normal rats: 172%
[2]; Normal rats, systemic 30 mg/kg NTX s.c.
  elevation of BrdU labeling relative to labeling index of Normal rats: 51%
[2]; Normal rats, topical NTX 10^−4 M to 10^−6 M in any of the 4 carriers (SPB, DMSO, KYJ, MCN)
  elevation of DNA synthesis from baseline levels: 43-132%
[2]; Normal rats, topical NTX in SPB
  increase in BrdU incorporation in the skin compared to baseline: 43-56%
[2]; Normal rats, topical NTX, different dosages, in MCN
  change of BrdU incorporation from baseline: 73-132%
[2]; T1D and normal rats, systemic or topical
  toxicity of the effects on cell proliferation: not toxic
Human and animal cells
  entry into cells: rapidly by passive diffusion
[3]; DB rats subjected to NTX, day 20 (DB vehicle had a 44% reduction)
  thickness of the epithelium relative to Normal animals receiving vehicle (24.6±1.6 μm): did not differ
[3]; Normal and DB rats receiving vehicle or NTX, 20 days following surgery
  general structure of the epithelium (e.g., absence of necrotic cells): appeared to be similar
[3]; Normal rats treated with NTX, day 20
  thickness of the epithelium relative to Normal animals receiving vehicle (24.6±1.6 μm): did not differ
[4]
  penetration of the skin: poor penetrator of the skin
[5]; one time daily, days 3, 5, 7, and 9
  reduction of wound size relative to MCN+vehicle: 31-82%
[5]; single daily regimen
  reduction of wound area relative to MCN+vehicle: 30%
[5]; three times daily, days 3, 5, 7, and 9 (day 9 not significant)
  reduction of wound size relative to MCN+vehicle: 11-23%
[5]; three times daily
  reduction of wound area relative to MCN+vehicle: 11%
